Calls of active or inactive are those of the source. The calls are words filed in the database; no cut-off is given here.
What was measured:
Canis familiaris [1] = assay: Saluretic activity in dog assessed as urinary excretion of chloride level at 0.1 mg/kg, iv after 3 hrs; type: functional, Canis lupus familiaris, Urine
Canis familiaris [2] = assay: Diuretic activity in dog assessed as urine volume measured in water at 0.1 mg/kg, iv after 3 hrs; type: functional, Canis lupus familiaris
Canis familiaris [3] = assay: Saluretic activity in dog assessed as urinary excretion of chloride level at 0.25 mg/kg, iv after 3 hrs; type: functional, Canis lupus familiaris, Urine
Canis familiaris [4] = assay: Diuretic activity in dog assessed as urine volume measured in water at 0.25 mg/kg, iv after 3 hrs; type: functional, Canis lupus familiaris
Canis familiaris [5] = assay: Saluretic activity in dog assessed as urinary excretion of potassium level at 0.1 mg/kg, iv after 3 hrs; type: functional, Canis lupus familiaris, Urine
Canis familiaris [6] = assay: Saluretic activity in dog assessed as urinary excretion of potassium level at 1 mg/kg, iv after 3 hrs; type: functional, Canis lupus familiaris, Urine
Canis familiaris [7] = assay: Saluretic activity in dog assessed as urinary excretion of chloride level at 1 mg/kg, iv after 3 hrs; type: functional, Canis lupus familiaris, Urine
Canis familiaris [8] = assay: Saluretic activity in dog assessed as urinary excretion of sodium level at 0.25 mg/kg, iv after 3 hrs; type: functional, Canis lupus familiaris, Urine
Canis familiaris [9] = assay: Saluretic activity in dog assessed as urinary excretion of sodium level at 0.1 mg/kg, iv after 3 hrs; type: functional, Canis lupus familiaris, Urine
Canis familiaris [10] = assay: Diuretic activity in dog assessed as urine volume measured in water at 1 mg/kg, iv after 3 hrs; type: functional, Canis lupus familiaris
Canis familiaris [11] = assay: Saluretic activity in dog assessed as urinary excretion of potassium level at 0.25 mg/kg, iv after 3 hrs; type: functional, Canis lupus familiaris, Urine
Canis familiaris [12] = assay: Saluretic activity in dog assessed as urinary excretion of sodium level at 1 mg/kg, iv after 3 hrs; type: functional, Canis lupus familiaris, Urine
Canis familiaris [13] = assay: Diuretic activity in dog assessed as urine volume measured in water at 1 mg/kg, po after 3 hrs; type: functional
Canis familiaris [14] = assay: Diuretic activity in dog assessed as urine volume measured in water at 10 mg/kg, iv after 3 hrs; type: functional, organism-based; parameters: dose 10 mg/kg; conditions: Canis lupus familiaris
Canis familiaris [15] = assay: Saluretic activity in dog assessed as urinary excretion of chloride level at 0.25 mg/kg, po after 3 hrs; type: functional, Canis lupus familiaris, Urine
Canis familiaris [16] = assay: Saluretic activity in dog assessed as urinary excretion of potassium level at 0.25 mg/kg, po after 3 hrs; type: functional, Canis lupus familiaris, Urine
Canis familiaris [17] = assay: Diuretic activity in dog assessed as urine volume measured in water at 0.25 mg/kg, po after 3 hrs; type: functional, Canis lupus familiaris
Canis familiaris [18] = assay: Saluretic activity in dog assessed as urinary excretion of sodium level at 0.25 mg/kg, po after 3 hrs; type: functional, Canis lupus familiaris, Urine
Canis familiaris [19] = assay: Saluretic activity in dog assessed as urinary excretion of sodium level at 0.1 mg/kg, po after 3 hrs; type: functional, Canis lupus familiaris, Urine
Canis familiaris [20] = assay: Diuretic activity in dog assessed as urine volume measured in water at 0.1 mg/kg, po after 3 hrs; type: functional, Canis lupus familiaris
Canis familiaris [21] = assay: Saluretic activity in dog assessed as urinary excretion of chloride level at 1 mg/kg, po after 3 hrs; type: functional, Canis lupus familiaris, Urine
Canis familiaris [22] = assay: Saluretic activity in dog assessed as urinary excretion of potassium level at 0.1 mg/kg, po after 3 hrs; type: functional, Canis lupus familiaris, Urine
Canis familiaris [23] = assay: Saluretic activity in dog assessed as urinary excretion of potassium level at 1 mg/kg, po after 3 hrs; type: functional, Canis lupus familiaris, Urine
Canis familiaris [24] = assay: Saluretic activity in dog assessed as urinary excretion of sodium level at 1 mg/kg, po after 3 hrs; type: functional, Canis lupus familiaris, Urine
Canis familiaris [25] = assay: Saluretic activity in dog assessed as urinary excretion of chloride level at 0.1 mg/kg, po after 3 hrs; type: functional, Canis lupus familiaris, Urine

Compound: CS(=O)(=O)c1cc(C(=O)O)cc(NCc2ccccc2)c1Oc1ccccc1
- Activity (Canis familiaris [1]): 1.4 milliequivalent/kg
- Activity (Canis familiaris [2]): 9 mL/kg
- Activity (Canis familiaris [3]): 3.5 milliequivalent/kg
- Activity (Canis familiaris [4]): 21 mL/kg
- Activity (Canis familiaris [5]): 0.2 milliequivalent/kg
- Activity (Canis familiaris [6]): 0.98 milliequivalent/kg
- Activity (Canis familiaris [7]): 5.1 milliequivalent/kg
- Activity (Canis familiaris [8]): 3 milliequivalent/kg
- Activity (Canis familiaris [9]): 1.1 milliequivalent/kg
- Activity (Canis familiaris [10]): 31 mL/kg
- Activity (Canis familiaris [11]): 0.99 milliequivalent/kg
- Activity (Canis familiaris [12]): 4.8 milliequivalent/kg

Compound: O=C(O)c1cc(NCc2ccccc2)c2c(c1)S(=O)(=O)C=C2c1ccccc1
- Activity (Canis familiaris [10]; Canis lupus familiaris): inactive

Compound: CSc1cc(C(=O)O)cc(NCc2ccccc2)c1Oc1ccccc1
- Activity (Canis familiaris [6]): 0.21 milliequivalent/kg
- Activity (Canis familiaris [7]): 0.9 milliequivalent/kg
- Activity (Canis familiaris [10]): 7 mL/kg
- Activity (Canis familiaris [12]): 0.6 milliequivalent/kg

Compound: O=C(O)c1cc(NCc2ccccc2)c2c(c1)S(=O)(=O)CC2(O)c1ccccc1 (centres undefined)
- Activity (Canis familiaris [10]; Canis lupus familiaris): inactive

Compound: CS(=O)(=O)c1cc(C(=O)O)cc(SCc2ccccc2)c1Sc1ccccc1
- Activity (Canis familiaris [13]; Canis lupus familiaris): inactive

Compound: CCCCSc1cc(C(=O)O)cc(S(C)(=O)=O)c1Oc1ccccc1
- Activity (Canis familiaris [2]; Canis lupus familiaris): inactive
- Activity (Canis familiaris [6]): 0.64 milliequivalent/kg
- Activity (Canis familiaris [7]): 3.2 milliequivalent/kg
- Activity (Canis familiaris [10]): 21 mL/kg
- Activity (Canis familiaris [12]): 3 milliequivalent/kg

Compound: CCCCNc1cc(C(=O)O)cc2c1C(c1ccccc1)=CS2(=O)=O
- Activity (Canis familiaris [10]; Canis lupus familiaris): inactive

Compound: CS(=O)(=O)c1cc(C(=O)O)c(NCc2ccccc2)cc1Nc1ccccc1
- Activity (Canis familiaris [14]): inactive

Compound: CCCCNc1cc(C(=O)O)cc(S(C)(=O)=O)c1C(=O)c1ccccc1
- Activity (Canis familiaris [15]): 1.2 milliequivalent/kg
- Activity (Canis familiaris [16]): 0.19 milliequivalent/kg
- Activity (Canis familiaris [17]): 9 mL/kg
- Activity (Canis familiaris [18]): 0.9 milliequivalent/kg

Compound: CCCCNc1cc(C(=O)O)cc2c1C(O)(c1ccccc1)CS2(=O)=O (centres undefined)
- Activity (Canis familiaris [10]; Canis lupus familiaris): inactive

Compound: CS(=O)(=O)c1cc(C(=O)O)cc(NCc2ccccc2)c1C(=O)c1ccccc1
- Activity (Canis familiaris [19]): 1.2 milliequivalent/kg
- Activity (Canis familiaris [20]): 12 mL/kg
- Activity (Canis familiaris [21]): 4.7 milliequivalent/kg
- Activity (Canis familiaris [22]): 0.28 milliequivalent/kg
- Activity (Canis familiaris [23]): 0.64 milliequivalent/kg
- Activity (Canis familiaris [13]): 33 mL/kg
- Activity (Canis familiaris [24]): 3.9 milliequivalent/kg
- Activity (Canis familiaris [25]): 1.7 milliequivalent/kg

Reference: ChEMBL document CHEMBL3272261, “Aminobenzioc acid diuretics. 8.(2) 3, 4-Disubstituted 5-methylsulfonylbenzioc acids and related compounds” (1976)
